Earlier results on one molecule are cited in US6476002B1 (priority 1997, dated 2002).

Data set [1] deals with rats with collagen arthritis. The conditions noted are these: reported by Peacock et al. 1992.
Another data set deals with wound healing. The conditions noted are these: from literature / copending application.

With `CO[C@@H]1[C@H](OC(=O)NC(=O)CCl)CC[C@]2(CO2)[C@H]1[C@@]1(C)O[C@@H]1CC=C(C)C` [AGM-1470], the “joint swelling in rats with collagen arthritis” value in data set [1] is listed as “reduces joint swelling”. In addition, in the data set on wound healing, the “effect on wound healing” value is “inhibits wound healing”.
